Read-outs that look alike come from different tables or passages of the source.
Experiments:
[1] = biological target: KHK-C expressed in NRK-52E cells (Homo sapiens (Human), UniProt P50053); test: KHK-C Cell-based Assay (EC50), NRK CTG, fructose-mediated ATP-depletion
human OATP1B1 = human OATP1B1 (Homo sapiens (Human), UniProt Q9Y6L6); test: In Vitro Inhibition Assessment with Human OATP1B1 Transporter; format: in vitro ADME; conditions: HEK293-OATP1B1 cells, probe substrate pravastatin
Outline: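 Pravastatin uptake was measured by LC-MS/MS after a 5 min exposure with inhibitor, following a 15 min inhibitor preincubation, in transfected versus mock HEK293 cells. Transport activity was derived as (transfected − mock) with compound over the same difference with solvent. IC50 is the concentration halving maximal activity; final DMSO was 0.4%.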

HepG2 cells = test: F1P Cell-Based Assay (EC50), 13C6-fructose-1-phosphate in HepG2 cells (cell culture medium or 50% human plasma)
human KHK-A = human KHK-A (Homo sapiens (Human), UniProt P50053); test: KHK Biochemical Assay (IC50), ADP-Glo, KHK-A; conditions: average of at least two separate assays
Outline: (§1)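 His-tagged enzyme expressed in BL21 (DE3), Ni-NTA purified. Compounds, serially diluted 1:3 in DMSO, pre-incubated 30 min with enzyme in 50 mM Hepes pH 7.4, 140 mM KCl, 5 mM MgCl2, 0.01% Triton-X, then ATP and fructose added; 4 h at room temperature. ADP formation read by ADP-Glo luminescence.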

human KHK-C = human KHK-C (Homo sapiens (Human), UniProt P50053); test: KHK Biochemical Assay (IC50), ADP-Glo, KHK-C; conditions: average of at least two separate assays
Outline: as §1

[2] = pKa analysis by capillary electrophoresis (pKa PRO Analyzer, co-solvent method); format: physicochemical; conditions: co-solvent method (60% to 30% methanol buffers); for pKa: methanol/aqueous co-solvent buffers
Procedure: The 10 mM DMSO stock solutions of test articles (TAs) were diluted 100-fold with either 2 mM HCl or 2 mM NaOH and methanol. The final concentration of methanol was 60%, TA concentration was 100 μM, and DMSO concentration was 1%. The TAs were transferred into 24 consecutive wells of a 96-well plate for analysis using the co-solvent method. […] All data was obtained using a pKa. PRO Analyzer (AATI, Ankey, IA) by performing four consecutive CE runs from 60% to 30% co-solvent buffers. Norfloxacin was used as a daily performance-indicating standard. The pKa values were predicted by using pKa. Estimator® software (AATI, Ankey, IA) by relating molecular weight of the TA to its mobility.

[3] = Homo sapiens, HepG2, HepG2 cells, 50% human plasma, read-out: F1P 50% HP EC50
[4] = Homo sapiens, HepG2, read-out: F1P 10% FBS EC50, HepG2 cells, cell culture medium (10% FBS)
[5] = pH range 1.7-11.2, read-out: 1st pKa
[6] = pH range 1.7-11.2, read-out: 2nd pKa

Chain of human KHK-A (P50053 other isoform, or with tags, fused parts or gaps): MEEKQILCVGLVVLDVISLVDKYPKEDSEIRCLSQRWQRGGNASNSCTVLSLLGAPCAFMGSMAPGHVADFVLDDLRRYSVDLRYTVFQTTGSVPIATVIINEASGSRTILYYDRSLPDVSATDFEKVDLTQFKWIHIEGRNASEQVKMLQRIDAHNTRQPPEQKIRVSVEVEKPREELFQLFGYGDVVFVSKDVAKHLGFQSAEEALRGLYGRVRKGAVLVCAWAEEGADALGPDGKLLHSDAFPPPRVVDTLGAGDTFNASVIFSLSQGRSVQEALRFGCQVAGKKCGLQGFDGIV
Chain of human KHK-C (P50053 whole entry): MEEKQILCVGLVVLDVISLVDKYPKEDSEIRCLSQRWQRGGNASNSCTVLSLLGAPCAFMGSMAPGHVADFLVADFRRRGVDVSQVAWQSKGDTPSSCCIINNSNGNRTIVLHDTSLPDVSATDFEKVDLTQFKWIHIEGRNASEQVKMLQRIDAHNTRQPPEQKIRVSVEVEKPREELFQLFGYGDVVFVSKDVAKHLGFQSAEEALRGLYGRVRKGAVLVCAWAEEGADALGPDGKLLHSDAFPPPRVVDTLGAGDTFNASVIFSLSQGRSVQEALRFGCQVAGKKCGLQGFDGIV
Chain of KHK-C expressed in NRK-52E cells (P50053 whole entry): as above
Chain of human OATP1B1 (Q9Y6L6 whole entry): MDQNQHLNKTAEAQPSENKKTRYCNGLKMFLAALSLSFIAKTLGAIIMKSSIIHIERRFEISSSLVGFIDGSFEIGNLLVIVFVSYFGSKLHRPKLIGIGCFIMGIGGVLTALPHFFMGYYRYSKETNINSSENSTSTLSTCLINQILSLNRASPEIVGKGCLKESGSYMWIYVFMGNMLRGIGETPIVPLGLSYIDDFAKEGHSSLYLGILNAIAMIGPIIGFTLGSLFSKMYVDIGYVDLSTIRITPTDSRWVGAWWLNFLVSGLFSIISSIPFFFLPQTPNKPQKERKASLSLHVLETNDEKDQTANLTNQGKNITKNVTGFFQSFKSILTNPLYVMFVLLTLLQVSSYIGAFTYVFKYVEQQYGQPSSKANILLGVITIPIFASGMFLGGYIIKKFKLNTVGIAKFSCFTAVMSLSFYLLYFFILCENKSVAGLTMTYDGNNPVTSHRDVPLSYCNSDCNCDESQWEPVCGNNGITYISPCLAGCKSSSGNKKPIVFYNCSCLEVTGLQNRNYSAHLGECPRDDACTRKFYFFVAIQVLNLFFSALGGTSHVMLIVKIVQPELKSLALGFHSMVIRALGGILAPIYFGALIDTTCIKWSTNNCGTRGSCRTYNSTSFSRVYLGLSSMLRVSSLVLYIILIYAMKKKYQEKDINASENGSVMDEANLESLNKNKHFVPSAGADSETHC

EC50 [1] | IC50 (human OATP1B1) | EC50 (HepG2 cells; [3]) | EC50 (HepG2 cells; [4]) | IC50 (human KHK-A) | IC50 (human KHK-C) | pKa [2, 5] | EC50 (HepG2 cells; HepG2 cells, 50% human plasma, read-out: F1P 50% HP EC50) | EC50 (HepG2 cells; read-out: F1P 10% FBS EC50, HepG2 cells, cell culture medium (10% FBS)) | 1st pKa ([2]; pH range 1.7-11.2) | IC50 (human KHK-A; ADP-Glo) | IC50 (human KHK-C; ADP-Glo) | pKa [2, 6] | Compound | EC50 (HepG2 cells; Homo sapiens, HepG2, read-out: F1P 10% FBS EC50) | EC50 (HepG2 cells; Homo sapiens, HepG2, read-out: F1P 50% HP EC50)
0.0418 µM | 31.7 µM | 0.0222 µM | 0.0207 µM | 0.0122 µM | 0.009 µM | 2.1 |  |  |  |  |  |  | C[C@H]1[C@H](O)CN1c1nc(-c2cccc([S@@](C)(=N)=O)c2)c2c(n1)C(F)(F)CC2 (single isomer, unassigned) [Example 492] |  | 
0.016 µM | > 40 µM | 0.0023 µM | 0.0011 µM | 0.0007 µM | 0.0015 µM | 2.5 |  |  |  |  |  |  | COc1ccc(-c2nc(N3C[C@@H](O)[C@@H]3C)nc3c2CCC3(F)F)cc1[S@@](C)(=N)=O (single isomer, unassigned) [Example 495] |  | 
 | 19.7 µM |  |  | 0.0125 µM | 0.0039 µM |  | 0.0306 µM | 0.0227 µM | 6.4 |  |  |  | C[C@H]1[C@H](F)CN1c1nc(-c2ccc([C@@H](N)CS(C)(=O)=O)cc2)c2c(n1)C(F)(F)CC2 (single isomer, unassigned) [Example 789] |  | 
0.128 µM | 1.32 µM |  |  |  |  | 4.38 |  |  |  | 0.0388 µM | 0.0481 µM |  | C[C@H]1CCN1c1nc2c(c(-c3cccc(C(N)=O)c3)n1)CCC2 [Example 8, (S)-3-(2-(2-methylazetidin-1-yl)-6,7-dihydro-5H-cyclopenta[d]pyrimidin-4-yl)benzamide] |  | 
0.177 µM | 10.2 µM |  |  |  |  | 4.27 |  |  |  | 0.0042 µM | 0.0021 µM | 9.27 | C[C@H]1CCN1c1nc2c(c(-c3ccc(CN)cc3)n1)CCC2 [Example 188, [4-[2-[(2S)-2-methylazetidin-1-yl]-6,7-dihydro-5H-cyclopenta[d]pyrimidin-4-yl]phenyl]methanamine] |  | 
0.384 µM |  | 4.61 µM | 0.253 µM |  |  | 4.14 |  |  |  | 0.255 µM | 0.242 µM |  | C[C@H]1CCN1c1nc2c(c(-c3ccccc3)n1)CCC2 [Example 331, 2-[(2S)-2-methylazetidin-1-yl]-4-phenyl-6,7-dihydro-5H-cyclopenta[d]pyrimidine] |  | 
0.0131 µM | 0.0389 µM |  |  |  |  | 4.32 |  |  |  | 0.01 µM | 0.0033 µM |  | C[C@H]1CCN1c1nc2c(c(-c3ccc4c(=O)[nH]ccc4c3)n1)CCC2 [Example 364, 6-[2-[(2S)-2-methylazetidin-1-yl]-6,7-dihydro-5H-cyclopenta[d]pyrimidin-4-yl]-2H-isoquinolin-1-one] |  | 
0.0077 µM | 1.69 µM |  |  |  |  | 3.29 |  |  |  | 0.0034 µM | 0.001 µM | 6.64 | C[C@H]1CCN1c1nc2c(c(-c3ccc4c(N)nccc4c3)n1)CCC2 [Example 378, 6-[2-[(2S)-2-methylazetidin-1-yl]-6,7-dihydro-5H-cyclopenta[d]pyrimidin-4-yl]isoquinolin-1-amine] |  | 
0.0026 µM |  | 0.0031 µM | 0.0013 µM |  |  | 4.31 |  |  |  | 0.0041 µM | 0.0046 µM | 9.19 | C[C@H]1CCN1c1nc2c(c(-c3ccc4c(c3)CCNC4)n1)CCC2 [Example 379, 6-[2-[(2S)-2-methylazetidin-1-yl]-6,7-dihydro-5H-cyclopenta[d]pyrimidin-4-yl]-1,2,3,4-tetrahydroisoquinoline] |  | 
0.0421 µM | 13.2 µM |  |  | 0.0111 µM | 0.0066 µM | 4.27 |  |  |  |  |  | 8.65 | C[C@H]1CCN1c1nc2c(c(-c3ccc(CN)s3)n1)CCC2 [Example 459, [5-[2-[(2S)-2-methylazetidin-1-yl]-6,7-dihydro-5H-cyclopenta[d]pyrimidin-4-yl]-2-thienyl]methanamine] |  | 
0.0114 µM | 3.01 µM | 0.0205 µM | 0.0073 µM | 0.004 µM | 0.0005 µM | 10.3 |  |  |  |  |  |  | C[C@H]1[C@H](O)CN1c1nc(-c2ccc3c(c2)OC[C@@H]3NS(C)(=O)=O)c2c(n1)C(F)(F)CC2 [Example 466, N—((R)-6-(7,7-difluoro-2-((2S,3R)-3-hydroxy-2-methylazetidin-1-yl)-6,7-dihydro-5H-cyclopenta[d]pyrimidin-4-yl)-2,3-dihydrobenzofuran-3-yl)methanesulfonamide] |  | 
0.0064 µM | 23.3 µM | 0.0132 µM | 0.0084 µM | 0.007 µM | 0.002 µM | 6.1 |  |  |  |  |  |  | NC1(c2ccc(-c3nc(N4CC[C@@H]4CF)nc4c3CCC4(F)F)cc2)COC1 [Example 471, (R)-3-(4-(7,7-difluoro-2-(2-(fluoromethyl)azetidin-1-yl)-6,7-dihydro-5H-cyclopenta[d]pyrimidin-4-yl)phenyl)oxetan-3-amine] |  | 
 | 2.67 µM | 0.0202 µM | 0.0165 µM | 0.0052 µM | 0.0035 µM | 5.3 |  |  |  |  |  |  | C[C@H]1[C@H](O)CN1c1nc(-c2ccc3c(c2)S(=O)(=O)CCNC3)c2c(n1)C(F)(F)CC2 [Example 489] |  | 
 | 0.939 µM | 0.0193 µM | 0.0093 µM | 0.0046 µM | 0.0012 µM | 5.5 |  |  |  |  |  |  | O=S1(=O)CCNCc2ccc(-c3nc(N4CC[C@@H]4CF)nc4c3CCC4(F)F)cc21 [Example 490, (R)-8-(7,7-difluoro-2-(2-(fluoromethyl)azetidin-1-yl)-6,7-dihydro-5H-cyclopenta[d]pyrimidin-4-yl)-2,3,4,5-tetrahydrobenzo[f][1,4]thiazepine 1,1-dioxide] |  | 
0.0358 µM | 36 µM | 0.0262 µM | 0.0319 µM | 0.0242 µM | 0.002 µM | 4.5 |  |  |  |  |  |  | C[C@H]1[C@H](O)CN1c1nc(-c2ccc(C3(N)CS(=O)(=O)C3)cc2)c2c(n1)C(F)(F)CC2 [Example 491] |  | 
0.0074 µM | 5.01 µM | 0.0224 µM | 0.0143 µM |  | 0.0027 µM | 6.6 |  |  |  |  |  |  | C[C@H]1[C@H](O)CN1c1nc(-c2ccc(C3(N)CC(F)(F)C3)cc2)c2c(n1)C(F)(F)CC2 [Example 646, (2S,3R)-1-[4-[4-(1-amino-3,3-difluoro-cyclobutyl)phenyl]-7,7-difluoro-5,6-dihydrocyclopenta[d]pyrimidin-2-yl]-2-methyl-azetidin-3-ol] |  | 
0.0352 µM | 12.8 µM | 0.0337 µM | 0.0282 µM |  | 0.0061 µM | 6.3 |  |  |  |  |  |  | N#C[C@H]1CCN1c1nc(-c2ccc(C3(N)COC3)cc2)c2c(n1)C(F)(F)CC2 [Example 711, (R)-1-(4-(4-(3-aminooxetan-3-yl)phenyl)-7,7-difluoro-6,7-dihydro-5H-cyclopenta[d]pyrimidin-2-yl)azetidine-2-carbonitrile] |  | 
 | 2.57 µM | 0.008 µM | 0.0069 µM | 0.0036 µM | 0.003 µM | 1.7 |  |  |  |  |  |  | COc1ccc(-c2nc(N3C[C@@H](O)[C@@H]3C)nc3c2CCC3(F)F)cc1S(N)(=O)=O [Example 763, 5-(7,7-difluoro-2-((2S,3R)-3-hydroxy-2-methylazetidin-1-yl)-6,7-dihydro-5H-cyclopenta[d]pyrimidin-4-yl)-2-methoxybenzenesulfonamide] |  | 
 | 10.6 µM |  |  |  |  | 4.6 |  |  |  |  |  |  | NC1(c2ccc(-c3nc(N4CC[C@@H]4C(F)(F)F)nc4c3CCC4(F)F)cc2)CS(=O)(=O)C1 [Example 802, (R)-3-amino-3-(4-(7,7-difluoro-2-(2-(trifluoromethyl)azetidin-1-yl)-6,7-dihydro-5H-cyclopenta[d]pyrimidin-4-yl)phenyl)thietane 1,1-dioxide] |  | 

Compound | EC50 [1] | IC50 (human OATP1B1) | EC50 (HepG2 cells; [3]) | EC50 (HepG2 cells; [4]) | IC50 (human KHK-A) | IC50 (human KHK-C) | pKa [2, 5] | EC50 (HepG2 cells; HepG2 cells, 50% human plasma, read-out: F1P 50% HP EC50) | EC50 (HepG2 cells; read-out: F1P 10% FBS EC50, HepG2 cells, cell culture medium (10% FBS)) | 1st pKa ([2]; pH range 1.7-11.2) | IC50 (human KHK-A; ADP-Glo) | IC50 (human KHK-C; ADP-Glo) | pKa [2, 6] | EC50 (HepG2 cells; Homo sapiens, HepG2, read-out: F1P 10% FBS EC50) | EC50 (HepG2 cells; Homo sapiens, HepG2, read-out: F1P 50% HP EC50)
NC1(c2ccc(-c3nc(N4CC[C@@H]4C(F)F)nc4c3CCC4(F)F)cc2)COC1 (single isomer, unassigned) [Example 687] | 0.0062 µM | 6.55 µM |  |  | 0.0028 µM | 0.0012 µM | 6 |  |  |  |  |  |  | 0.0076 µM | 0.0146 µM

From US12410160B2 (Gilead Sciences, Inc., priority 2021, dated 2025)
